Values quoted from earlier work in patent publication US9993551B2, “Combination therapies of EGFR inhibitors” (NOVARTIS AG, priority 2014, dated 2018).

Legend:
[1] = system: EGFR activating and acquired resistance mutants (L858R, ex19del and T790M); conditions: targeted covalent irreversible EGFR inhibitor
WT EGFR = WT EGFR (Homo sapiens, UniProt P00533)
[2] = system: EGFR mutant (L858R, ex19del and T790M) cancer models; conditions: in vitro and in vivo

Chain of WT EGFR (P00533 25-1210): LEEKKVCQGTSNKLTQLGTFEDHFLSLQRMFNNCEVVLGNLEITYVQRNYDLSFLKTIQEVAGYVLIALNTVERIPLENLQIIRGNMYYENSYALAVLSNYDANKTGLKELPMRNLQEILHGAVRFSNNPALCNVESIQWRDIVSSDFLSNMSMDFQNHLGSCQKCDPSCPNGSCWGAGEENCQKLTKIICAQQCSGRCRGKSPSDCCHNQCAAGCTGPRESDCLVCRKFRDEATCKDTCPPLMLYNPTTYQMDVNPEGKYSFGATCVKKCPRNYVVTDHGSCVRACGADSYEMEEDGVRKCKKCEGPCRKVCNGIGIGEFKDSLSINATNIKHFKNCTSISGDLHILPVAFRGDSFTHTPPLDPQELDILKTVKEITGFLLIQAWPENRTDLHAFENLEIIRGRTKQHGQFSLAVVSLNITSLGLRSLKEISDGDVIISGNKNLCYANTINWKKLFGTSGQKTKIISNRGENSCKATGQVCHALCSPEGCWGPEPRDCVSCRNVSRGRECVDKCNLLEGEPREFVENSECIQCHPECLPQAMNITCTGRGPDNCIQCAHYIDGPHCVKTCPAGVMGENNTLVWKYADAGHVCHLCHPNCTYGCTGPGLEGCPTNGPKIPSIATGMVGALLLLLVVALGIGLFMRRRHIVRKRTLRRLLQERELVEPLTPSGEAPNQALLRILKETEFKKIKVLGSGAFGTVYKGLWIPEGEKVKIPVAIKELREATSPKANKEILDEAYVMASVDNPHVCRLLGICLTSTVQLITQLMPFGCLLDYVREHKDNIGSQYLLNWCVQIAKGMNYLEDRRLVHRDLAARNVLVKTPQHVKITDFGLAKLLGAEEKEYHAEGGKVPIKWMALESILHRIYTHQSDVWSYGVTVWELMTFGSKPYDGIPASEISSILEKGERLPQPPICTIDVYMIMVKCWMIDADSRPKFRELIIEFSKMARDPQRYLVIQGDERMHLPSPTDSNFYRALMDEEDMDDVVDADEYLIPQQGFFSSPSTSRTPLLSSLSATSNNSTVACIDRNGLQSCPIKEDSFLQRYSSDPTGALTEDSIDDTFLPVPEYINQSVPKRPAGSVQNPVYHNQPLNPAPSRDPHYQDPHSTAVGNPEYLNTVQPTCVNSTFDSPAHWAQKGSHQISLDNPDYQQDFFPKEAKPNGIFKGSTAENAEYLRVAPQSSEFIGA

In the case of `Cc1cc(C(=O)Nc2nc3cccc(Cl)c3n2[C@@H]2CCCCN(C(=O)/C=C/CN(C)C)C2)ccn1` [EGF816, (R,E)-N-(7-chloro-1-(1-(4-(dimethylamino)but-2-enoyl)azepan-3-yl)-1H-benzo[d]imidazol-2-yl)-2-methylisonicotinamide], the “inhibition of mutant EGFR” value [1] is given as “selectively inhibits”, the “effect on WT EGFR” value (WT EGFR) is given as “sparing WT EGFR” and the “efficacy in EGFR mutant cancer models” value [2] is given as “significant efficacy”.
